{
  "source": "patent US12152038B2",
  "about": "“Vasopressin receptor antagonists and products and methods related thereto” (Neumora Therapeutics, Inc., priority 2017, dated 2024)",
  "key": {"[1]": {"target": "T1, human Oxytocin Receptor (hOTR) (Homo sapiens, UniProt P30559)", "T1 construct": "host or cells: CHEM-1 (ready-to-assay frozen cells)", "T1 sequence (P30559 1-389)": "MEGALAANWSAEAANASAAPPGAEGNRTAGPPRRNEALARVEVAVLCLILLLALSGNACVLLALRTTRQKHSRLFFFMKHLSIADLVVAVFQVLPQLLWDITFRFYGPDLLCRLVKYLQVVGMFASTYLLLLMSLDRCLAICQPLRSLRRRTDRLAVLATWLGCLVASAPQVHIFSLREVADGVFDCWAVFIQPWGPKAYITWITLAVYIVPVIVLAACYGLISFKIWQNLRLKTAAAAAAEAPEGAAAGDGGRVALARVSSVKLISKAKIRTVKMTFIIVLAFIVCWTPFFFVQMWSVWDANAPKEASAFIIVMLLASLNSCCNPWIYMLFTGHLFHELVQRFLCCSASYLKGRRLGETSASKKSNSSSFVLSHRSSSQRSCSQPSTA", "assay": "Oxytocin receptor (OTR) antagonist assay (FLIPR calcium, CHEM-1-hOTR cells)", "format": "cell-based", "summary_of_the_method": "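CHEM-1 cells expressing human OTR were loaded with Calcium-6 dye in HBSS/20 mM HEPES and preincubated with compound (10-point, 1:3 series) for 15 min at 37° C. Cells were then challenged with oxytocin at its daily-determined EC80. Calcium fluorescence was read on FLIPR for 3 min after each addition.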"}, "[2]": {"target": "T2, human Arginine Vasopressin Receptor V2 (AVPR2) (Homo sapiens, UniProt P30518)", "T2 construct": "host or cells: 1321N1 (cAMPZen V2 assay ready frozen cells)", "T2 sequence (P30518 whole entry)": "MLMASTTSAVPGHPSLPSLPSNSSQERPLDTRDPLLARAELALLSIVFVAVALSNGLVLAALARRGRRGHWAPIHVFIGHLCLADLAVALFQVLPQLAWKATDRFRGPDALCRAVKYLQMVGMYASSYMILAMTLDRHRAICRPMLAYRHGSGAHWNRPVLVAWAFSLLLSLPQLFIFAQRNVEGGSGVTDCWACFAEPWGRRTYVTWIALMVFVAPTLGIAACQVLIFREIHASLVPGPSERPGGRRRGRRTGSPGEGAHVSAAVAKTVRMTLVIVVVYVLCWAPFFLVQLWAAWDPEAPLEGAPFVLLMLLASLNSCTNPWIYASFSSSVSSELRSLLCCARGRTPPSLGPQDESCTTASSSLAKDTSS", "assay": "Vasopressin V2 receptor antagonist assay (TR-FRET cAMP, 1321N1 cells)", "format": "cell-based", "method": "The purpose of the assay was to determine the inhibitory effect of synthesized compounds on the Vasopressin receptor 2. The assay was performed in commercially available 1321N1 cells expressing the human Arginine Vasopressin Receptor V2 (AVPR2) (Perkin Elmer #ES-363-CF). Arginine Vasopressin (AVP) evokes an increase in intracellular cAMP in these cells which is measured in a TR-FRET assay using a Europium cAMP tracer and ULight labelled antibody reagents contained in a LANCE Ultra cAMP kit (Perkin Elmer #TRF0263). Increases in cAMP in the assay result in a reduction in TR-FRET as the cAMP produced by the stimulated cells competes with the Eu-cAMP tracer for binding sites on the ULight labelled antibody. Test compounds were assessed for their ability to affect the magnitude of the response to AVP, with antagonists showing a concentration-dependent decrease in the AVP-mediated reduction in TR-FRET signal.\ncAMPZen V2 assay ready cells were thawed at 37° C. and resuspended directly from frozen in 9 ml growth medium consisting of DMEM supplemented with 10% v/v fetal bovine serum, 1× non-essential amino acids, and 1 mM sodium pyruvate. Cells were spun at 1000 rpm for 3 minutes and the supernatant was carefully removed and discarded. The pellet was resuspended in 5 ml stimulation buffer and the cell density determined using the Vi-Cell automated cell counter. The cell suspension was diluted to a 0.2×10^6/ml suspension ready for plating. To all wells of a white 384-well Optiplate (Perkin Elmer #6007299) 5 μL of cells in stimulation buffer were dispensed (1,000 cells per well). Stimulation buffer consisted of HBSS (+Ca/+Mg) supplemented with 5 mM HEPES, 0.1% BSA stabiliser and 0.5 mM IBMX.\nAt the start of each assay day the potency of AVP was assessed and an EC80 concentration determined for subsequent compound profiling. Assays were performed by first an addition of 2.5 μl of control or test compound at 4× final concentration in stimulation buffer followed by 2.5 μl of AVP at 4× final concentration in stimulation buffer. After a 1 hour reaction, detection reagents were added by first an addition of 5 μl EU-cAMP tracer, followed by 5 μl ULight-anti-cAMP both diluted as per the manufacturer's instructions. After a one hour incubation, plates were ready to be read (signals then remained stable for up to 24 hours). Changes in time resolved fluorescence were monitored with excitation via a laser (337 nm) measuring both 615 nm and 665 nm emission wavelengths. […] For compound profiling, test compounds were dispensed by the Labcyte Echo (10-point curve, 1:3 dilutions) in a target 0.1 μl volume then diluted 750-fold in stimulation buffer containing 3% DMSO prior to addition to the cells. At the end of the incubation period, 2.5 μl of AVP in stimulation buffer was added at the previously determined EC80 concentration.\nIn-plate controls for the assay included a Tolvaptan concentration-response curve as the reference V2 antagonist and an AVP concentration-response curve to confirm the reproducibility of the EC80 used for the compound challenge."}},
  "data": [
    {"smiles": "CC1Cc2cc(Cl)ccc2N1C(=O)N1CC2(C1)CN(c1ccc(F)cn1)C2", "note": "(centres unmarked) [8-16]", "values": [
      {"measurement": "IC50", "setting": "[1]", "result": "< 0.1", "unit": "µM"},
      {"measurement": "IC50", "setting": "[2]", "result": "< 0.1", "unit": "µM"}
    ]},
    {"smiles": "CC1COc2cc(Cl)ccc2N1C(=O)N1CC2(C1)CN(c1cccnn1)C2", "note": "(centres unmarked) [9-1, (7-chloro-3-methyl-2,3-dihydro-4H-benzo[b][1,4]oxazin-4-yl)(6-(pyridazin-3-yl)-2,6-diazaspiro[3.3]heptan-2-yl)methanone]", "values": [
      {"measurement": "IC50", "setting": "[1]", "result": "0.1 to 0.5", "unit": "µM"},
      {"measurement": "IC50", "setting": "[2]", "result": "≥ 1", "unit": "µM"}
    ]},
    {"smiles": "CC1CN(C(=O)N2CC3(C2)CN(c2ccc(F)cn2)C3)c2ccc(Cl)cc2O1", "note": "(centres unmarked) [9-3]", "values": [
      {"measurement": "IC50", "setting": "[1]", "result": "0.5 to 1", "unit": "µM"},
      {"measurement": "IC50", "setting": "[2]", "result": "≥ 1", "unit": "µM"}
    ]},
    {"smiles": "O=C(N1CC2(C1)CN(c1ccc(F)cn1)C2)N1CCOc2cc(Cl)ccc21", "note": "[9-7]", "values": [
      {"measurement": "IC50", "setting": "[1]", "result": "≥ 1", "unit": "µM"},
      {"measurement": "IC50", "setting": "[2]", "result": "≥ 1", "unit": "µM"}
    ]},
    {"smiles": "CCC1COc2cc(Cl)ccc2N1C(=O)N1CC2(C1)CN(c1ccccn1)C2", "note": "(centres unmarked) [11-1, (7-chloro-3-ethyl-2,3-dihydro-4H-benzo[b][1,4]oxazin-4-yl)(6-(pyridin-2-yl)-2,6-diazaspiro[3.3]heptan-2-yl)methanone]", "values": [
      {"measurement": "IC50", "setting": "[1]", "result": "< 0.1", "unit": "µM"},
      {"measurement": "IC50", "setting": "[2]", "result": "< 0.1", "unit": "µM"}
    ]},
    {"smiles": "CC1COc2cc(F)ccc2N1C(=O)N1CC2(C1)CN(c1ccc(F)cn1)C2", "note": "(centres unmarked) [12-1, (7-fluoro-3-methyl-2,3-dihydro-4H-benzo[b][1,4]oxazin-4-yl)(6-(5-fluoropyridin-2-yl)-2,6-diazaspiro[3.3]heptan-2-yl)methanone]", "values": [
      {"measurement": "IC50", "setting": "[1]", "result": "0.5 to 1", "unit": "µM"},
      {"measurement": "IC50", "setting": "[2]", "result": "0.1 to 0.5", "unit": "µM"}
    ]},
    {"smiles": "O=C(N1CC2(C1)CN(c1cnccn1)C2)N1CCC(O)c2cc(Cl)ccc21", "note": "(centres unmarked) [13-3]", "values": [
      {"measurement": "IC50", "setting": "[1]", "result": "≥ 1", "unit": "µM"},
      {"measurement": "IC50", "setting": "[2]", "result": "≥ 1", "unit": "µM"}
    ]},
    {"smiles": "O=C(N1CC2(C1)CN(c1ccc(F)cn1)C2)N1CCC(F)c2cc(Cl)ccc21", "note": "(centres unmarked) [14-1, (6-chloro-4-fluoro-3,4-dihydroquinolin-1(2H)-yl)(6-(5-fluoropyridin-2-yl)-2,6-diazaspiro[3.3]heptan-2-yl)methanone]", "values": [
      {"measurement": "IC50", "setting": "[1]", "result": "≥ 1", "unit": "µM"},
      {"measurement": "IC50", "setting": "[2]", "result": "≥ 1", "unit": "µM"}
    ]},
    {"smiles": "CC1COc2cc(Cl)ccc2N1C(=O)N1CC2(C1)CN(c1noc3cccnc13)C2", "note": "(centres unmarked) [18-3]", "values": [
      {"measurement": "IC50", "setting": "[1]", "result": "≥ 1", "unit": "µM"},
      {"measurement": "IC50", "setting": "[2]", "result": "0.1 to 0.5", "unit": "µM"}
    ]},
    {"smiles": "CC1COc2cc(Cl)c(F)cc2N1C(=O)N1CC2(C1)CN(c1ncccn1)C2", "note": "(centres unmarked) [19-2]", "values": [
      {"measurement": "IC50", "setting": "[1]", "result": "0.5 to 1", "unit": "µM"},
      {"measurement": "IC50", "setting": "[2]", "result": "≥ 1", "unit": "µM"}
    ]},
    {"smiles": "CC1COc2cc(Cl)c(F)cc2N1C(=O)N1CC2(C1)CN(c1cccnn1)C2", "note": "(centres unmarked) [19-4]", "values": [
      {"measurement": "IC50", "setting": "[1]", "result": "0.1 to 0.5", "unit": "µM"},
      {"measurement": "IC50", "setting": "[2]", "result": "≥ 1", "unit": "µM"}
    ]},
    {"smiles": "CC1COc2cc(F)c(F)cc2N1C(=O)N1CC2(C1)CN(c1ccc(F)cn1)C2", "note": "(centres unmarked) [19-5]", "values": [
      {"measurement": "IC50", "setting": "[1]", "result": "0.1 to 0.5", "unit": "µM"},
      {"measurement": "IC50", "setting": "[2]", "result": "< 0.1", "unit": "µM"}
    ]},
    {"smiles": "CC1COc2cc(Cl)c(F)cc2N1C(=O)N1CC2(C1)CN(c1cccnc1)C2", "note": "(centres unmarked) [19-6]", "values": [
      {"measurement": "IC50", "setting": "[1]", "result": "0.1 to 0.5", "unit": "µM"},
      {"measurement": "IC50", "setting": "[2]", "result": "≥ 1", "unit": "µM"}
    ]},
    {"smiles": "CC1COc2cc(Cl)ccc2N1C(=O)N1CC2(C1)CN(c1cccnc1)C2", "note": "(centres unmarked) [20-1, (7-chloro-3-methyl-2,3-dihydro-4H-benzo[b][1,4]oxazin-4-yl)(6-(pyridin-3-yl)-2,6-diazaspiro[3.3]heptan-2-yl)methanone]", "values": [
      {"measurement": "IC50", "setting": "[1]", "result": "0.1 to 0.5", "unit": "µM"},
      {"measurement": "IC50", "setting": "[2]", "result": "≥ 1", "unit": "µM"}
    ]},
    {"smiles": "Cc1cncc(N2CC3(CN(C(=O)N4c5ccc(F)cc5OCC4C)C3)C2)n1", "note": "(centres unmarked) [20-2]", "values": [
      {"measurement": "IC50", "setting": "[1]", "result": "0.1 to 0.5", "unit": "µM"},
      {"measurement": "IC50", "setting": "[2]", "result": "< 0.1", "unit": "µM"}
    ]},
    {"smiles": "CC1COc2cc(Cl)ccc2N1C(=O)N1CC2(C1)CN(c1cc(C#N)ccn1)C2", "note": "(centres unmarked) [20-6]", "values": [
      {"measurement": "IC50", "setting": "[1]", "result": "< 0.1", "unit": "µM"},
      {"measurement": "IC50", "setting": "[2]", "result": "< 0.1", "unit": "µM"}
    ]},
    {"smiles": "Cc1nc(N2CC3(CN(C(=O)N4c5ccc(Cl)cc5OCC4C)C3)C2)ncc1F", "note": "(centres unmarked) [20-7]", "values": [
      {"measurement": "IC50", "setting": "[1]", "result": "0.1 to 0.5", "unit": "µM"},
      {"measurement": "IC50", "setting": "[2]", "result": "0.1 to 0.5", "unit": "µM"}
    ]},
    {"smiles": "COc1ccnc(N2CC3(CN(C(=O)N4c5ccc(Cl)cc5OCC4C)C3)C2)c1", "note": "(centres unmarked) [20-8]", "values": [
      {"measurement": "IC50", "setting": "[1]", "result": "0.1 to 0.5", "unit": "µM"},
      {"measurement": "IC50", "setting": "[2]", "result": "0.1 to 0.5", "unit": "µM"}
    ]},
    {"smiles": "COc1ccnc(N2CC3(CN(C(=O)N4c5ccc(Cl)cc5OCC4C)C3)C2)n1", "note": "(centres unmarked) [20-9]", "values": [
      {"measurement": "IC50", "setting": "[1]", "result": "0.1 to 0.5", "unit": "µM"},
      {"measurement": "IC50", "setting": "[2]", "result": "0.1 to 0.5", "unit": "µM"}
    ]},
    {"smiles": "Cc1nccnc1N1CC2(CN(C(=O)N3c4ccc(Cl)cc4OCC3C)C2)C1", "note": "(centres unmarked) [20-10]", "values": [
      {"measurement": "IC50", "setting": "[1]", "result": "0.1 to 0.5", "unit": "µM"},
      {"measurement": "IC50", "setting": "[2]", "result": "0.5 to 1", "unit": "µM"}
    ]},
    {"smiles": "Cc1ccnc(N2CC3(CN(C(=O)N4c5ccc(Cl)cc5OCC4C)C3)C2)c1", "note": "(centres unmarked) [20-11]", "values": [
      {"measurement": "IC50", "setting": "[1]", "result": "0.1 to 0.5", "unit": "µM"},
      {"measurement": "IC50", "setting": "[2]", "result": "< 0.1", "unit": "µM"}
    ]},
    {"smiles": "Cc1ccnc(N2CC3(CN(C(=O)N4c5ccc(Cl)cc5OCC4C)C3)C2)n1", "note": "(centres unmarked) [20-12]", "values": [
      {"measurement": "IC50", "setting": "[1]", "result": "0.1 to 0.5", "unit": "µM"},
      {"measurement": "IC50", "setting": "[2]", "result": "< 0.1", "unit": "µM"}
    ]}
  ]
}
